# Where two headings read alike, the source gives them in different places.
# Columns and labels:
# [1] = test system: microorganisms, principally bacteria; conditions: for silo/slime formers: Plate Count agar with high excess of glucose; for silo/total count: R2A Agar
# Procedure: Process water samples were drawn and immediately inactivated with sodium thiosulfate to degrade any residue of the biofilm inhibiting substance. Samples were then serially ten-fold diluted in a Trypton (DIFCO) saline dilution medium. The diluted samples were plated in molten R2A Agar (hereinafter=“total count”) and in molten Plate Count agar containing a high excess of glucose (hereinafter “slime formers”). The agar solidified at room temperature and the plates were incubated at 35° C. for 48 h.
# H2O2-degrading enzymes = test system: H2O2-degrading enzymes
# Procedure: (§1) The reaction pH was Maintained at 9.8-10.0. The Production process was controlled to ensure synchronous metering of the two chemicals, continuous mixing at the predetermined molar ratio and reproducible production of a stable biofilm inhibiting substance stock solution for the duration of the trial and longer. […] After 850 minutes the dosing rate was reduced to 85 g/ton expressed as total Cl2 by feeding the biofilm inhibiting substance semi-continuously. Various parameters were monitored during start-up of the trial: Residual biofilm inhibiting substance was measured (using a Hach pocket colorimeter, total Cl2, based on the DPD method adapted from Standard Methods for Examination of Waste and Waste Water). Residual hydrogen peroxide was measured using either LASA 20 with the LCW 085 method, based on the method of Jander/Blasius, Lehrbuch der Analytischen and Praparative Anorganischen Chemie, as described in the Handbook of Photometrical Operation Analysis by Dr. Lange for the LASA 20, October 1997 (in cases of high concentration), or Merck Test Strips (0.5-25 ppm). When necessary, samples were diluted with DI water.
# (§2) The activity of H2O2-degrading enzymes in the process water was measured according to the following procedure: a commercial solution of H2O2 was diluted with DI water to a final concentration of 100 g/l water (10%). One ml of the diluted H2O2 solution was added to 9 ml of a sample taken from the treated de-inking process water to form a final feed rate of 10 g/l H2O2. The combined sample was incubated at room temperature for 15 minutes, at which time residual H2O2 was measured. Hydrogen peroxide diluted in DI water served as a control. […] Adenosine triphosphate (ATP) measurements in Table 6 are based on the following process: during the change from ATP to Adenosine monophosphate (AMP) in the presence of luciferin and luciferase, a defined quantity of light is emitted per ATP molecule. This emitted light is measured by a photometer. The results are given in relative terms and are thus relative and not absolute (RLU=relative light unit). The values can be correlated with microbial activity in the sense that for high viable counts, a high ATP measurement is obtained, and vice versa.
# [2] = test system: planktonic microorganisms
# Procedure: as §1, §2
# biofilm = test: Waste water fouling control in a 7 km pipe, Hazen-Williams coefficient
# Procedure: Treated wastewater was piped from a wastewater treatment plant to a location 7 kilometers away.
# (The Hazen-Williams coefficient is used to express water flow through industrial pipes. It is calculated using the formula
# [formula] wherein P is the friction pressure drop expressed in pounds per square inch per 1000 feet of pipe length, B is the flow rate in barrels per hour, s is the specific gravity of the liquid, C=a friction factor (the Hazen-Williams coefficient), and d is the internal diameter of the pipe in inches. P and B are measured for a given pipe, s and d are treated as constants, and C is calculated. The results are presented as the Hazen-Williams coefficient.
# Waste water (up to 10 m^3/h) was used to appropriately dilute both chemicals. An on-line pH meter controlled the production process and the hypochlorite feeding rate to ensure the production of a stable biofilm inhibiting substance. The biofilm inhibiting substance was injected into the treated waste pipe as it was produced. Concentration of the biofilm inhibiting substance stock solution was 3000-4000 ppm; the pH was maintained at 9.5-10.
# [3] = day 1 of trial, cleaning period
# [4] = day 2 of trial, cleaning period
# [5] = day 3 of trial, cleaning period
# [6] = day 4 of trial, cleaning period
# [7] = day 6 of trial, cleaning period
# [8] = day 7 of trial, cleaning period
# [9] = day 8 of trial, cleaning period
# [10] = day 9 of trial, cleaning period
# [11] = day 10 of trial, cleaning period
# [12] = day 13 of trial, cleaning period
# [13] = day 16 of trial, clean paper machine
# [14] = day 17 of trial, clean paper machine
# [15] = day 20 of trial, clean paper machine
# [16] = day 21 of trial, clean paper machine
# [17] = day 24 of trial, clean paper machine
# [18] = day 27 of trial, clean paper machine
# [19] = time 100 min, continuous feed 170 g/ton as total Cl2
# [20] = time 240 min, continuous feed 170 g/ton as total Cl2
# [21] = time 850 min, continuous feed 170 g/ton as total Cl2
# [22] = time 1500 min, semi-continuous feed 85 g/ton as total Cl2 since 850 min
substance,measurement,setting,value
bromide activated chloramine [Fuzzicide BAC],silo/slime formers,[1]; [3],1.0 × 10^1 cfu
same,silo/total count,[1]; [3],1 × 10^0 cfu
same,silo/slime formers,[1]; [4],5.92 × 10^3 cfu
same,silo/total count,[1]; [4],5.68 × 10^4 cfu
same,silo/slime formers,[1]; [5],2.0 × 10^2 cfu
same,silo/total count,[1]; [5],4.8 × 10^4 cfu
same,silo/slime formers,[1]; [6],1.0 × 10^0 cfu
same,silo/total count,[1]; [6],7.6 × 10^3 cfu
same,silo/slime formers,[1]; [7],1.2 × 10^2 cfu
same,silo/total count,[1]; [7],3.8 × 10^3 cfu
same,silo/slime formers,[1]; [8],1.0 × 10^0 cfu
same,silo/total count,[1]; [8],4.0 × 10^3 cfu
same,silo/slime formers,[1]; [9],4.0 × 10^1 cfu
same,silo/total count,[1]; [9],1.68 × 10^3 cfu
same,silo/slime formers,[1]; [10],2.2 × 10^2 cfu
same,silo/total count,[1]; [10],5.0 × 10^3 cfu
same,silo/slime formers,[1]; [11],1.0 × 10^0 cfu
same,silo/total count,[1]; [11],1.18 × 10^3 cfu
same,silo/slime formers,[1]; [12],1.0 × 10^1 cfu
same,silo/total count,[1]; [12],2.4 × 10^3 cfu
same,silo/slime formers,[1]; [13],1.0 × 10^0 cfu
same,silo/total count,[1]; [13],2.0 × 10^2 cfu
same,silo/slime formers,[1]; [14],1.0 × 10^0 cfu
same,silo/total count,[1]; [14],6.0 × 10^1 cfu
same,silo/slime formers,[1]; [15],1.0 × 10^0 cfu
same,silo/total count,[1]; [15],3.0 × 10^2 cfu
same,silo/slime formers,[1]; [16],1.0 × 10^0 cfu
same,silo/total count,[1]; [16],7.5 × 10^2 cfu
same,silo/slime formers,[1]; [17],1.0 × 10^0 cfu
same,silo/total count,[1]; [17],1.0 × 10^2 cfu
same,silo/slime formers,[1]; [18],1.0 × 10^0 cfu
same,silo/total count,[1]; [18],1.1 × 10^2 cfu
same,viable counts in process water samples taken from the silo,"[1]; initial cleaning period, irrespective of high or low residue of Fuzzicide BAC",10^3-10^4 viable cells per ml
same,"Reduction in Catalase Activity, as % of initial H2O2 concentration","H2O2-degrading enzymes; time 0 min (start of dosing, baseline), 10 g/l H2O2 added to sample, 15 min",37.6%
same,"Reduction in Catalase Activity, as % of initial H2O2 concentration",H2O2-degrading enzymes; [19],17.8%
same,"Reduction in Catalase Activity, as % of initial H2O2 concentration",H2O2-degrading enzymes; [20],54.7%
same,"Reduction in Catalase Activity, as % of initial H2O2 concentration",H2O2-degrading enzymes; [21],92%
same,"Reduction in Catalase Activity, as % of initial H2O2 concentration",H2O2-degrading enzymes; [22],135.1%
same,ATP (RLU),"[2]; time 0 min (start of dosing, baseline)",132276 RLU
same,ATP (RLU),[2]; [19],6340 RLU
same,ATP (RLU),[2]; [20],2861 RLU
same,ATP (RLU),[2]; [21],535 RLU
same,ATP (RLU),[2]; [22],3568 RLU
same,Hazen-Williams coefficient (HW) maintenance,"biofilm; 10 ppm as total chlorine for three hours once a week, over a period of months, after cleaning",constant value
same,Hazen-Williams coefficient (HW),"biofilm; 10 ppm as total chlorine once a day for three hours for 6 consecutive days, HW before ~90",~104
same,Hazen-Williams coefficient (HW),"biofilm; combination of pigging and 10 ppm (as total Cl2) once a day for three hours, HW before ~104",~116
